Results from patent US20260191969A1, “COMPOSITION CONTAINING ANIONIC LONG-CHAIN LIPID TO BE USED FOR ATTENUATING SKIN BARRIER FUNCTION, AND DISPERSION CONTAINING COMPLEX COMPRISING CATIONIC LONG-CHAIN LIPID, ANIONIC LONG-CHAIN LIPID AND DRUG DISPERSED THEREIN” (KYUSHU UNIVERSITY, NATIONAL UNIVERSITY CORPORATION, priority 2022, published 2026).
Strand notation (5' to 3'): a small letter for the sugar, then the base; units joined by * are phosphorothioate-linked, units joined directly phosphodiester-linked; [ ] holds rarer units or linkages, { } end groups; capitals alone tell only the bases. l = locked nucleic acid (LNA); [5mC] = 5-methylcytosine; d = 2'-deoxy (DNA)

Test system: SNORA23
Test: knock-down of target RNA after transdermal or subcutaneous administration to tumor-bearing mice (RT-PCR)
Format: in vivo
Conditions: for expression level of the target RNA (SNORA23): 250 μg ASO in 50 μL, two days after, skin, subcutaneous tumor, liver, FIG. 34
Protocol: A formulation targeting SNORA23 was prepared. To mice, 3×10^6 ES2 ovarian carcinoma cells were subcutaneously transplanted, and the formation of subcutaneous tumor was checked 1 week after that. To the top (1 cm×1 cm) of a tumor or into the periphery of a tumor, 50 μL of hybrid particles containing 250 μg of ASO targeting SNORA23 was applied or subcutaneously injected. For the transdermal administration group, protective tape was wound once around the trunk including the administration site.
Two days after the administration, the skin, subcutaneous tumor, and liver were isolated, and total RNA was extracted. The level of targeted RNA (SNORA23) was quantified, and the presence or absence of reduction in the expression level was examined by an RT-PCR method.

Substance: 5′-GAAacctatgmCAmCa-3′ (lG*lA*lA*dA*dC*dC*dT*dA*dT*dG*l[5mC]*lA*l[5mC]*dA) [ASO]
- knock-down of target RNA in the liver (irrespective of the route of administration, suggests migration of ASO into blood): knock-down effect
- expression level of the target RNA (SNORA23) (subcutaneous administration): Reduction of the expression level of the target RNA was induced
- expression level of the target RNA (SNORA23) (transdermal administration): Reduction of the expression level of the target RNA was induced
